This is an account of results in patent publication US20240150286A1, “PEROXISOME PROLIFERATOR-ACTIVATED RECEPTOR GAMMA (PPARy) LIGANDS AND METHODS OF USE AS TREATMENTS FOR INSULIN RESISTANCE, OBESITY, FATTY LIVER DISEASE, AND TYPE 2 DIABETES” (The Board of Regents of the University of Oklahoma, priority 2022, published 2024).

Data set [1] concerns diet-induced obesity (DIO) mice. Nature of the data set: TZD-associated side effects in DIO mice (PCV, heart weight, cardiac and bone genes). Format: in vivo, mouse. As to the method: C57BL/6J male mice were obtained from Jackson laboratory (Bar Harbor, ME) and maintained on a 12 h light (6:00 AM to 6:00 PM)—12 h dark (6:00 PM to 6:00 AM) cycle at an ambient temperature of 22±1° C. All animals had access to diet and water ad libitum. All procedures involving animals were approved by the Institutional Animal Care and Use Committee of the University of Oklahoma Health Science Center. All experiments were performed with age-matched male mice. The mice were fed a high-fat diet (HFD) (60% kcal fat, Bio-Serv, NJ, USA) starting from the age of 6 weeks until study end. […] Food intake was determined manually by measuring the amount of input food subtracting the amount of the food remaining in the food hopper and the crumbs on the bedding of the cage each day for three days during the 4th week of the treatment. Packed cell volume (PCV) was measured with blood drawn from tail on a LW Scientific E8 centrifuge (LW Scientific, Lawrenceville, Georgia, USA) microhematocrit centrifuge at the end of study. For all other measurements, the blood was drawn at the time of euthanization.
(§1) Total RNA (2 μg) was isolated from tissues or cells using TRIzol reagents (Life Technologies) and reverse transcribed using oligo d(T) primers (New England Biosystems) and SuperScript IV reverse transcription kit (Applied Biosystems). qPCR was performed in a CFX96 Touch Real-Time PCR detection system using SYBR Green mix (Applied Biosystems). The amplification program was as follows: initial denaturation at 95° C. for 15 min, followed by 40 cycles of 95° C. for 15 s, 60° C. for 1 min, and 40° C. for 30 s. Relative mRNA expression was determined by the ΔΔCt method normalized to TBP mRNA.

Data set [2] concerns the target T1, human PPARγ2 (Homo sapiens, UniProt P37231).
T1 construct: host or cells: HEK-293
T1 sequence (P37231 1-505): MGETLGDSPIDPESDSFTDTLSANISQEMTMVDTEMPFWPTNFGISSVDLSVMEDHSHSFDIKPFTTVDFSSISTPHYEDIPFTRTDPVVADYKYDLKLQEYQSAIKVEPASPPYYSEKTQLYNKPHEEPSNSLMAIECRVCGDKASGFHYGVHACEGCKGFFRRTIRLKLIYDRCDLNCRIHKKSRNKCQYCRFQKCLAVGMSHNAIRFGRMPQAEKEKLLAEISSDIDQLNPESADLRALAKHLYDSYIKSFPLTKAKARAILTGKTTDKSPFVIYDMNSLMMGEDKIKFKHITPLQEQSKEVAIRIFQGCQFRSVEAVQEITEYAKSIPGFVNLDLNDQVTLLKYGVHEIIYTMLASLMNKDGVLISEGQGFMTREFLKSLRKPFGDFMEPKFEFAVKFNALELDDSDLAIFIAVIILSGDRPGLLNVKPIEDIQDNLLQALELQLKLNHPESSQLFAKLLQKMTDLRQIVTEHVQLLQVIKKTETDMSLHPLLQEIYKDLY
Nature of the data set: PPARγ transactivation reporter assay (3×PPRE-luc) in HEK-293 cells. It counts as cell-based. The following applies: HEK293, PPARγ2 + 3×PPRE-luc, relative to Rosi. On the procedure: HEK-293 cells were seeded overnight, co-transfected with plasmids expressing human PPARγ2 and 3×PPRE-luc (both from Addgene) followed by incubation for 16 h, and then re-seeded in a 384-well plate and incubated for 24 h. Compounds were added and then incubated another 24 h. Luciferase activity was analyzed in each well using Bright-Glo Luciferase kit (Promega).

Data set [3] relates to PPARγ S273 phosphorylation. Kind of data set: PPARγ S273 phosphorylation and phosphorylation-dependent genes in 3T3-L1 differentiated adipocytes. Format: cell-based, mouse. The following applies: 3T3-L1 differentiated adipocytes, TNFα 10 ng/ml 1 h, compounds at 10 μM, Western blot. On the procedure: as §1
Data set [4] has as its target T2, PPARγ (Homo sapiens, UniProt P37231).
T2 sequence (P37231 1-505): T1 sequence (P37231 1-505)
As to conditions: cited from earlier work.

For the molecule `CN(CCOc1ccc(CC2SC(=O)NC2=O)cc1)c1ccccn1` (stereo not shown) [Rosi, rosiglitazone, reference compound], in data set [1] (4-week treatment), the “mRNA levels of bone formation genes (Bglap, SPP1, ColA1)” value is “decreased their expression significantly”. In data set [1] (relative to vehicle), the heart weight result is on record as “significant increase”. Besides, in data set [1] (vs vehicle), the “mRNA levels of Myh7 and Nppb in heart” value is on record as “increased”.

With `Cc1c(C)n(Cc2ccc(-c3ccccc3C(=O)O)cc2)c2ccc(C(=O)NCc3cccnc3)cc12` [UHC1, 4′ -((2,3-Dimethyl-5-(pyridine-3-ylmethylcarboamyl)-1H-indol-1-yl)methyl)biphenyl-2-carboxylic acid, reference compound], in data set [2], the “3×PPRE-luc reporter activity as % of potency of Rosi” value is reported as “approximately 45%”. In addition, the “S273 phosphorylation of PPARγ” value in data set [3] is reported as “significantly inhibited”. In addition, in data set [4], the “PPARγ binding affinity (literature)” value is recorded as “poor” and the “PPARγ phosphorylation at S273 (literature)” value was “inhibit”.
